According to ChEMBL document CHEMBL4145665, “Structure-Activity Relationship of Novel and Selective Biaryl-Chroman GPR40 AgoPAMs” (ACS Med Chem Lett, 2018):

Columns and labels:
Rattus norvegicus [1] = experiment: Antidiabetic activity in Goto Kakizaki rats assessed as plasma concentration required for reduction in blood glucose excursion at 3 mg/kg, po pretreated for 1 hr followed by dextrose challenge measured 3 hrs post dose by OGTT; assay type: functional, organism-based
Rattus norvegicus [2] = experiment: Antidiabetic activity in Goto Kakizaki rats assessed as plasma concentration required for reduction in blood glucose excursion at 30 mg/kg, po pretreated for 1 hr followed by dextrose challenge measured 3 hrs post dose by OGTT; assay type: functional, organism-based
[3] = Effective half life in rhesus monkey at 1 mg/kg, iv or 2 mg/kg, po administered as single dose; assay type: ADME, organism-based, Macaca mulatta; conditions: in vivo, read-out: t1/2eff (converted)
[4] = Fraction unbound in Beagle dog plasma at 1 mg/kg, iv or 2 mg/kg, po administered as single dose; assay type: ADME, organism-based, Canis lupus familiaris
Rattus norvegicus [5] = experiment: Antidiabetic activity in Goto Kakizaki rats assessed as inhibition of blood glucose AUC at 0.3 mg/kg, po pretreated for 1 hr followed by dextrose challenge measured after 20 to 60 mins by OGTT method relative to control; assay type: functional
[6] = Lipophilicity, log D of the compound at pH 7 at 100 uM by HPLC method; assay type: physicochemical; conditions: buffer
[7] = Volume of distribution at steady state in rhesus monkey at 1 mg/kg, iv or 2 mg/kg, po administered as single dose; assay type: ADME, organism-based, Macaca mulatta; conditions: in vivo, read-out: Vdss
Rattus norvegicus [8] = experiment: Antidiabetic activity in po dosed Goto Kakizaki rats assessed as plasma concentration required for reduction in blood glucose excursion at MED pretreated for 1 hr followed by dextrose challenge measured 3 hrs post dose by OGTT; assay type: functional, organism-based
[9] = Fraction unbound in Wistar-Han rat plasma at 1 mg/kg, iv or 2 mg/kg, po administered as single dose; assay type: ADME, organism-based
Rattus norvegicus [10] = experiment: Toxicity in Wistar rat assessed as gross findings at 200 to 750 mg/kg administered once daily for 4 days; assay type: organism-based; conditions: in vivo, 96 h
[11] = Fraction unbound in rhesus monkey plasma at 1 mg/kg, iv or 2 mg/kg, po administered as single dose; assay type: ADME, organism-based, Macaca mulatta
[12] = Oral bioavailability in Beagle dog at 2 mg/kg administered as single dose; assay type: ADME, organism-based, Canis lupus familiaris; conditions: in vivo
Rattus norvegicus [13] = experiment: Antidiabetic activity in Sprague-Dawley rat assessed as inhibition of blood glucose AUC at 3 mg/kg, po treated prior to dextrose challenge and measured after 20 to 60 mins by IPGTT relative to control; assay type: functional; conditions: Rattus norvegicus, Sprague-Dawley, po
[14] = biological target: T1, Free fatty acid receptor 4 (Homo sapiens, UniProt Q5NUL3); experiment: Agonist activity at GPR120 (unknown origin); assay type: functional
T1 sequence (Q5NUL3 whole entry): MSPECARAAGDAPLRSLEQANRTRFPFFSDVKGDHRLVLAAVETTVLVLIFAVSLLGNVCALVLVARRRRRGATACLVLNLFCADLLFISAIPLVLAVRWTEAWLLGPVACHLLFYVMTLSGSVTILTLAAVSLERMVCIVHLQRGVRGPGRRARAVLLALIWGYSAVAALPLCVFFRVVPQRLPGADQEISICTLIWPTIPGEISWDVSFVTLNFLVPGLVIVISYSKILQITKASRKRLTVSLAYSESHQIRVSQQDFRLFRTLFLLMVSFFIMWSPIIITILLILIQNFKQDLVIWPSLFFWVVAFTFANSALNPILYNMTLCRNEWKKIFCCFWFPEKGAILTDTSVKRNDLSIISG

Rattus norvegicus [15] = experiment: Toxicity in Wistar rat assessed as change in functional observational battery at 200 to 750 mg/kg administered once daily for 4 days; assay type: organism-based; conditions: in vivo, 96 h
Rattus norvegicus [16] = experiment: Antidiabetic activity in Goto Kakizaki rats assessed as plasma concentration required for reduction in blood glucose excursion at 1 mg/kg, po pretreated for 1 hr followed by dextrose challenge measured 3 hrs post dose by OGTT; assay type: functional, organism-based
[17] = Intrinsic clearance in Wistar-Han rat hepatocytes; assay type: ADME, cell-based, Hepatocyte; conditions: read-out: CLH
Rattus norvegicus [18] = experiment: Antidiabetic activity in Goto Kakizaki rats assessed as plasma concentration required for reduction in blood glucose excursion at 0.3 mg/kg, po pretreated for 1 hr followed by dextrose challenge measured 3 hrs post dose by OGTT; assay type: functional, organism-based
[19] = AUC (0 to 24 hrs) in Wistar rat at 750 mg/kg administered once daily for 4 days; assay type: ADME, organism-based; set-up: dose 750 mg/kg, time < 24 hr; conditions: in vivo
[20] = Clearance in Beagle dog at 1 mg/kg, iv or 2 mg/kg, po administered as single dose; assay type: ADME, organism-based, Canis lupus familiaris; conditions: in vivo
[21] = biological target: T2, Free fatty acid receptor 1 (Homo sapiens, UniProt O14842); experiment: Agonist activity at recombinant human GPR40 expressed in HEK293 cells assessed as increase in IP1 accumulation measured after 60 mins in presence of 100% human serum by HTRF assay; assay type: functional, cell-based
T2 sequence (O14842 whole entry): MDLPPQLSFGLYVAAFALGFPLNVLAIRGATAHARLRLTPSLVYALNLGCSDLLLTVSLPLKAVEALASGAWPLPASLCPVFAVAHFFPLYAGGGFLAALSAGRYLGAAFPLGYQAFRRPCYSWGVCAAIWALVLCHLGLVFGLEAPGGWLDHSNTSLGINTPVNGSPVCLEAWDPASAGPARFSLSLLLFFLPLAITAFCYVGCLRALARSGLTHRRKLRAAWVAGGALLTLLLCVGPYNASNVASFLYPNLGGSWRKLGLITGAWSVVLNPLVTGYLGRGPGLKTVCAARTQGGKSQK

[22] = biological target: Free fatty acid receptor 1 (Rattus norvegicus, UniProt Q8K3T4); experiment: Agonist activity at recombinant rat GPR40 expressed in CHOK1 cells assessed as increase in IP1 accumulation measured after 60 mins by HTRF assay; assay type: functional, cell-based
Chain of Free fatty acid receptor 1 (Rattus norvegicus, UniProt Q8K3T4) (Q8K3T4 whole entry): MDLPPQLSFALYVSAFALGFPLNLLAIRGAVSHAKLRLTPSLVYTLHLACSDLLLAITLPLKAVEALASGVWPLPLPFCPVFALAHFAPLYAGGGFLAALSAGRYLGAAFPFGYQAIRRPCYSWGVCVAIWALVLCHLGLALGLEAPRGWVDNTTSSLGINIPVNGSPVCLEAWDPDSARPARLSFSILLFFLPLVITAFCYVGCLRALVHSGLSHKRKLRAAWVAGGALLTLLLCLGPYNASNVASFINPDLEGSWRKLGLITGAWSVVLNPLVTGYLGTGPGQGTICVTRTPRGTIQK

Rattus norvegicus [23] = experiment: Antidiabetic activity in Goto Kakizaki rats assessed as inhibition of blood glucose AUC at 10 mg/kg, po pretreated for 1 hr followed by dextrose challenge measured after 20 to 60 mins by OGTT method relative to control; assay type: functional
[24] = Cmax in Wistar rat at 200 mg/kg administered once daily for 4 days; assay type: ADME, organism-based; set-up: dose 200 mg/kg; conditions: in vivo
Rattus norvegicus [25] = experiment: Antidiabetic activity in Goto Kakizaki rats assessed as plasma concentration required for reduction in blood glucose excursion at 10 mg/kg, po pretreated for 1 hr followed by dextrose challenge measured 3 hrs post dose by OGTT; assay type: functional, organism-based
[26] = Volume of distribution at steady state in Wistar-Han rat at 1 mg/kg, iv or 2 mg/kg, po administered as single dose; assay type: ADME, organism-based; conditions: in vivo, read-out: Vdss
[27] = Intrinsic clearance in Beagle dog hepatocytes; assay type: ADME, cell-based, Canis lupus familiaris, Hepatocyte; conditions: read-out: CLH
Bile salt export pump = Bile salt export pump (Homo sapiens, UniProt O95342); experiment: Inhibition of human BSEP expressed in baculovirus infected Sf9 insect cell membrane vesicles assessed as reduction in ATP-dependent [3H]-taurocholic acid uptake; assay type: ADME
Chain of Bile salt export pump (O95342 whole entry): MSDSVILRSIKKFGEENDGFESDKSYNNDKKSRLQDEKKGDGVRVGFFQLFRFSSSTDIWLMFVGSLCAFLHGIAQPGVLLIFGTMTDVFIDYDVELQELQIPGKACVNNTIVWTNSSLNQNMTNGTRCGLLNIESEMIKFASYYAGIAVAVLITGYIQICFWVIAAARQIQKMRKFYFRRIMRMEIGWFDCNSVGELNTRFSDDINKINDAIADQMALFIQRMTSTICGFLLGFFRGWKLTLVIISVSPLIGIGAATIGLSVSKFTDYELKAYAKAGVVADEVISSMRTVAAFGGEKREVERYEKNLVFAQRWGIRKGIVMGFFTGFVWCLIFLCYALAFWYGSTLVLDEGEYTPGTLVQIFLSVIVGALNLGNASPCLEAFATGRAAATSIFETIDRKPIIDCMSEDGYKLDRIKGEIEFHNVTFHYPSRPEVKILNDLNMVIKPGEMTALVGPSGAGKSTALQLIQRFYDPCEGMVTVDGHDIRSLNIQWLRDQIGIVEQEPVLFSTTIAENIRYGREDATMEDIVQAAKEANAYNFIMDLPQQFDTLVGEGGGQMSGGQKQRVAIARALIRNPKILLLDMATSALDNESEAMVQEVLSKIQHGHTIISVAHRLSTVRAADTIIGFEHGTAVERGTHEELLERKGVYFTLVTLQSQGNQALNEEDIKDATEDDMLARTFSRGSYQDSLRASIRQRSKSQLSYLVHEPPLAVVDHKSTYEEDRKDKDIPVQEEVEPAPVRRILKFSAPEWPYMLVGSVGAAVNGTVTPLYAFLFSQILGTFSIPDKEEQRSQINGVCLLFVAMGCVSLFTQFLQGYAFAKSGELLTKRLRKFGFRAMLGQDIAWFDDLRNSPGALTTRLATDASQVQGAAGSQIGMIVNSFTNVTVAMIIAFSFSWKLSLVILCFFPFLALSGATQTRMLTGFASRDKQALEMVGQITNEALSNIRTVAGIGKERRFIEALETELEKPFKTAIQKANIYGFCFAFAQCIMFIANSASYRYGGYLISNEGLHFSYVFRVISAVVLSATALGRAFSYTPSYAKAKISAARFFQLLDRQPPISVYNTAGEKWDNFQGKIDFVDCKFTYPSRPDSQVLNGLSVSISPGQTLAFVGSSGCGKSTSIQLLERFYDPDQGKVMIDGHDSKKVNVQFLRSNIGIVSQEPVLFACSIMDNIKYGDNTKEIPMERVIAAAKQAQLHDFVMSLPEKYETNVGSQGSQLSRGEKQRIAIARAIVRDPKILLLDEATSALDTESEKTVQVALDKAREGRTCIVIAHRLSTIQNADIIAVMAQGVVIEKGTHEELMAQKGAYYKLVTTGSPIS

[28] = Clearance in rhesus monkey at 1 mg/kg, iv or 2 mg/kg, po administered as single dose; assay type: ADME, organism-based, Macaca mulatta; conditions: in vivo
[29] = Oral bioavailability in rhesus monkey at 2 mg/kg administered as single dose; assay type: ADME, organism-based, Macaca mulatta; conditions: in vivo
[30] = biological target: T2, Free fatty acid receptor 1; experiment: Agonist activity at recombinant human GPR40 expressed in HEK293 cells assessed as increase in IP1 accumulation measured after 60 mins by HTRF assay; assay type: functional, cell-based
[31] = biological target: T2, Free fatty acid receptor 1; experiment: Agonist activity at recombinant human GPR40 expressed in HEK293 cells assessed as increase in IP1 accumulation measured after 60 mins by HTRF assay relative to AM-1638; assay type: functional, cell-based
Rattus norvegicus [32] = experiment: Toxicity in Wistar rat assessed as decrease in body weight at 750 mg/kg administered once daily for 4 days relative to control; assay type: organism-based; set-up: scale not given: the % may be the effect or the level left; conditions: in vivo, 96 h
[33] = Drug metabolism in human hepatocytes assessed as phenol metabolite formation; assay type: ADME, cell-based, Hepatocyte
Rattus norvegicus [34] = experiment: Toxicity in Wistar rat assessed as mortality at 200 to 750 mg/kg administered once daily for 4 days; assay type: organism-based; conditions: in vivo, 96 h
[35] = Effective half life in Wistar-Han rat at 1 mg/kg, iv or 2 mg/kg, po administered as single dose; assay type: ADME, organism-based; conditions: in vivo, read-out: t1/2eff (converted)

`COc1cc(-c2ccc([C@@H]3CCc4ccc([C@H](C5CC5)[C@H](C)C(=O)[O-])cc4O3)c(F)c2)ccn1.[Na+]` gave a Cp (Rattus norvegicus [1]) of 2.2 µM, a Cp (Rattus norvegicus [2]) of 7.7 µM and a half-life [3] of 10 h. It also gave a fraction unbound [4] of 0.015, an inhibition in vivo at 0.3 mg/kg (Rattus norvegicus [5]) of 63% and a logD at 100 µM [6] of 2.51. For the same molecule, the Vd [7] was 0.48 L/kg, the Cp (Rattus norvegicus [8]) was 4.9 µM and the fraction unbound [9] was 0.0002. The Activity (Rattus norvegicus [10]) was “Non-Toxic”, the fraction unbound [11] was 0.00071 and the bioavailability [12] was 79%. The inhibition in vivo at 3 mg/kg (Rattus norvegicus [13]) was 103%, the EC50 [14] was over 10000 nM and the Activity (Rattus norvegicus [15]) was “Non-Toxic”. For the same molecule, the Cp (Rattus norvegicus [16]) was 0.9 µM, the CLint scaled [17] was 241 mL/min/kg and the Cp (Rattus norvegicus [18]) was 0.25 µM. For the same molecule, the AUC at 24 h [19] was 7350 µM·h, the clearance [20] was 1.6 mL/min/kg and the EC50 [21] was 35 nM. For the same molecule, the EC50 [22] was 0.49 nM, the inhibition in vivo at 10 mg/kg (Rattus norvegicus [23]) was 118% and the Cmax [24] was 223 µM. For the same molecule, the Cp (Rattus norvegicus [25]) was 4.9 µM, the Vd [26] was 0.48 L/kg and the CLint scaled [27] was 126 mL/min/kg. For the same molecule, the IC50 (Bile salt export pump) was 3500 nM, the clearance [28] was 0.72 mL/min/kg and the bioavailability [29] was 64%. The EC50 [30] was 0.8 nM, the max activation [31] was over 179% and the Activity (Rattus norvegicus [32]) was 90%. For the same molecule, the Drug metabolism [33] was “Metabolite_Notdetected”, the Activity (Rattus norvegicus [34]) was “Non-Toxic” and the half-life [35] was 3.7 h.
